The values that follow are results of earlier work, collected in US4430326A (University Patents, Inc., priority 1981, dated 1984).

The test system of data set [1] is glycogenolytic stimulation. The following applies: Cote, et al.
The next data set concerns adenylate cyclase system. The following applies: literature reports.

Regarding N^α -trinitrophenyl glucagon, the “reported action toward glycogenolytic stimulation” value in data set [1] is on record as “partial agonist”. For N^α,N^ε -di(trinitrophenyl)-glucagon, the “reported action on adenylate cyclase activity (agonist / antagonist)” value with adenylate cyclase system is “agonists”. Consider [12-homoargine]glucagon, for which, in the data set with adenylate cyclase system, the “reported action on adenylate cyclase activity (agonist / antagonist)” value was “full agonist”.
